Results on 7 molecules are retold here after PubChem BioAssay AID2060490 (Molecular Pharmacology Branch, DTP, NCI, 2025).

The experiment deals with 885512-296-R-J2-PDC complex spheroid viability. Kind of experiment: Anticancer human tumor 885512-296-R-J2-PDC patient-derived breast carcinoma cell line growth inhibition [GQUAD]. Particulars: for viability, T/C: stronger effect = lower value. The text has this: DNA G-quadruplex Stabilizer Agents in Combinations in Complex Spheroids
A high-throughput screen of multi-cell type tumor spheroids was designed to identify active combinations of DNA G-quadruplex stabilizer agents and targeted small molecules. Complex spheroids include a stromal component modeled by human endothelial cells (HUVEC) and fibroblasts modeled by human mesenchymal stem cells (MSCs). The concentration ranges selected for each drug and investigational agent were based upon clinically achievable concentrations if the clinical Cmax of the agent was known.
Compounds. The drugs and investigational agents: pidnarulex (CX-5461; NSC782164), APTO-253 (NSC789042), BRACO-19 (NSC847499), peposertib (NSC802822), ceralasertib (NSC780249), elimusertib (NSC800525), camonsertib (NSC841442), AZD-1390 (NSC803789), olaparib (NSC753686), talazoparib (NSC767125), ART-558 (NSC835418), sotorasib (NSC818433), MRTX-1133 (NSC836407), SN-38 (NSC673596), topotecan (NSC609699), etoposide (NSC141540), doxorubicin (NSC123127), gemcitabine (NSC613327), 5-fluorouracil (NSC19893), paclitaxel (NSC125973), vemurafenib (NSC761431), panobinostat (NSC761190), R-306465 (JNJ-16241199; NSC773264), adavosertib (NSC754352), TP-3654 (NSC805149), carboplatin (NSC241240), KSQ-4279 (NSC840948), and staurosporine (NSC755774) were obtained from the National Cancer Institute (NCI) Developmental Therapeutics Program Chemical Repository (34). The FDA-approved anticancer drug set is available from the NCI Developmental Therapeutics Program. […] The stock solutions were prepared in dimethyl sulfoxide (DMSO, Sigma-Aldrich, St. Louis, MO, cat. D2650) at 800-fold the tested concentration and stored at -70 degrees C prior to their use. All drugs and investigational agents were tested over a range starting from a high concentration at or near the clinical Cmax and decreasing in half-log increments. If the clinical Cmax for an agent had not been determined, the highest concentration tested was 10 microM.
2.3 Cell Culture. All cells were maintained in an incubator at 37 degrees C and 5% CO2 with 95% humidity. The PDC lines were cultured according to standard operating procedures established by the NCI PDMR. All PDCs were thawed and cultured in Matrigel-coated flasks prepared with a working solution of 1X Ham's F-12 nutrient mix, without supplementation (Invitrogen, cat. 11765054), 100 U/mL penicillin-streptomycin (Invitrogen, cat. 15140122), and 2.5% Matrigel (Corning Inc., cat. 354248) for the first three passages. The 857933-349-R-J2-PDC line was cultured in 6C/Colon 1B media, which includes advanced DMEM/F-12 (Thermo Fisher Scientific, cat. 12634028), 10 mM HEPES (Thermo Fisher Scientific, cat. 15630080), 1X GlutaMAX supplement (Thermo Fisher Scientific, cat. 35050061), 0.1 mg/mL primocin (InvivoGen, cat. ant-pm-2), 10% defined fetal bovine serum, heat inactivated (HyClone Laboratories Inc., cat. SH30070.03HI), 50% L-WRN conditioned media (ATCC, cat. CRL-3276), 1.25 mM N-Acetyl-L-cysteine (Sigma-Aldrich, cat. A9165), 10 mM nicotinamide (Sigma-Aldrich, cat. N0636), 1X B-27 supplement (Thermo Fisher Scientific, cat. 17504044), 1X N-2 supplement (Thermo Fisher Scientific, cat. 17502048), 10 microM Y-27632 dihydrochloride (Tocris Bioscience, cat. 1254), and 50 ng/mL human EGF recombinant protein (Thermo Fisher Scientific, cat. PHG0311). The 485176-168-R4-J1-PDC line was cultured in Panc media, which includes all 6C/Colon 1B media components plus 100 ng/mL human FGF-10 (Thermo Fisher Scientific, cat. 100-26), 500 nM SB-431542 (Selleckchem, cat. S1067), and gastrin (Tocris, cat. 3006).
[…]

Setting [1] is: curve of first compound, second compound 0.0316 µM.
[2] abbreviates: curve of first compound, second compound 0.1 µM.
The mark [3] stands for this setting: curve of first compound, second compound 0.316 µM.
Where [4] appears, read: curve of first compound, second compound 1 µM.
Setting [5] is: curve of first compound, second compound 3.16 µM.
[6] abbreviates: curve of first compound, second compound 10 µM.
[7] abbreviates: second compound 0.0316 µM, first compound 0.0316 µM.
Where [8] appears, read: second compound 0.0316 µM, first compound 0.1 µM.
Setting [9] is: second compound 0.0316 µM, first compound 0.316 µM.
Setting [10] is: second compound 0.0316 µM, first compound 1 µM.
Where [11] appears, read: second compound 0.0316 µM, first compound 3.16 µM.
Setting [12] is: second compound 0.0316 µM, first compound 10 µM.
Where [13] appears, read: second compound 0.1 µM, first compound 0.0316 µM.
The mark [14] stands for this setting: second compound 0.1 µM, first compound 0.1 µM.
Setting [15] is: second compound 0.1 µM, first compound 0.316 µM.
Where [16] appears, read: second compound 0.1 µM, first compound 1 µM.
Setting [17] is: second compound 0.1 µM, first compound 3.16 µM.
The mark [18] stands for this setting: second compound 0.1 µM, first compound 10 µM.
Setting [19] is: second compound 0.316 µM, first compound 0.0316 µM.
Where [20] appears, read: second compound 0.316 µM, first compound 0.1 µM.
Where [21] appears, read: second compound 0.316 µM, first compound 0.316 µM.
The mark [22] stands for this setting: second compound 0.316 µM, first compound 1 µM.
[23] abbreviates: second compound 0.316 µM, first compound 3.16 µM.
Where [24] appears, read: second compound 0.316 µM, first compound 10 µM.
Where [25] appears, read: second compound 1 µM, first compound 0.0316 µM.
Setting [26] is: second compound 1 µM, first compound 0.1 µM.
The mark [27] stands for this setting: second compound 1 µM, first compound 0.316 µM.
The mark [28] stands for this setting: second compound 1 µM, first compound 1 µM.
The mark [29] stands for this setting: second compound 1 µM, first compound 3.16 µM.
Setting [30] is: second compound 1 µM, first compound 10 µM.
Setting [31] is: second compound 3.16 µM, first compound 0.0316 µM.
[32] abbreviates: second compound 3.16 µM, first compound 0.1 µM.
Setting [33] is: second compound 3.16 µM, first compound 0.316 µM.
[34] abbreviates: second compound 3.16 µM, first compound 1 µM.
[35] abbreviates: second compound 3.16 µM, first compound 3.16 µM.
[36] abbreviates: second compound 3.16 µM, first compound 10 µM.
Setting [37] is: second compound 10 µM, first compound 0.0316 µM.
The mark [38] stands for this setting: second compound 10 µM, first compound 0.1 µM.
[39] abbreviates: second compound 10 µM, first compound 0.316 µM.
The mark [40] stands for this setting: second compound 10 µM, first compound 1 µM.
Where [41] appears, read: second compound 10 µM, first compound 3.16 µM.
[42] abbreviates: second compound 10 µM, first compound 10 µM.

Molecules are shown by their SMILES. Several values for one entry are separate records, joined by “and”; a condition that tells them apart may be missing. Identical values can stand only once.
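Further: spheroids exposed to the compounds for one week.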
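Wherever viability, T/C is given: percent of tumor spheroid viability relative to DMSO vehicle control wells.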

Consider `Cc1cccc(N(C)C(=O)C2C(O)CCN2c2nc(C)cc(C(F)(F)F)c2C#N)c1` (stereo unspecified), for which the viability, T/C is, setting by setting: (compound 0.0316 µM) 104% and 98.3% and 102%; (compound 0.1 µM) 100% and 104% (2×); (compound 0.316 µM) 91.8% and 93.8% and 104%; (compound 1 µM) 97.2% and 103% and 105%; (compound 3.16 µM) 97.8% and 113% and 97.5%; (compound 10 µM) 85% and 79.4% and 86.6%. The IC50 (curve of compound) was above 10000 nM.
On to `Cc1cccc(N(C)C(=O)C2C(O)CCN2c2nc(C)cc(C(F)(F)F)c2C#N)c1` (stereo unspecified) + Cc1cnc(CNC(=O)c2c(=O)c3ccc(N4CCCN(C)CC4)nc3n3c2sc2ccccc23)cn1, for which the IC50 under setting [1] is above 10000 nM; the IC50 under setting [2] was above 10000 nM; the IC50 under setting [3] is below 31.6 nM; the IC50 under setting [4] is below 31.6 nM; the IC50 under setting [5] was below 31.6 nM; the concentration for half-maximal inhibition (IC50) under setting [6] is below 31.6 nM. Besides, the viability, T/C reads like this: under setting [7], 93.2%; under setting [8], 86.2%; under setting [9], 87.4%; under setting [10], 82.8%; under setting [11], 91.4%; under setting [12], 75.6%. In addition, the viability, T/C runs as follows: under setting [13], 65.8%; under setting [14], 64.4%; under setting [15], 63.1%; under setting [16], 61.2%; under setting [17], 52.5%; under setting [18], 63.9%. The viability, T/C under setting [19] is 31%; the viability, T/C under setting [20] was 36.2%; the viability, T/C under setting [21] was 35.8%; the viability, T/C under setting [22] is 33.9%; the viability, T/C under setting [23] is 28.6%; the viability, T/C under setting [24] was 28.6%. The viability, T/C by setting is: under setting [25], 26.3%; under setting [26], 29%; under setting [27], 28.4%; under setting [28], 25.6%; under setting [29], 27.3%; under setting [30], 28.7%. Further, the viability, T/C reads like this: under setting [31], 43.4%; under setting [32], 25.7%; under setting [33], 30.3%; under setting [34], 30.5%; under setting [35], 28.5%; under setting [36], 30.2%. For the same molecule, the viability, T/C was 0.21% under setting [37]; 0.26% under setting [38]; 0.26% under setting [39]; 0.25% under setting [40]; 0.25% under setting [41]; 0.25% under setting [42].
In the case of `COc1cc(C2c3cc4c(cc3C(OC3OC5COC(C)OC5C(O)C3O)C3COC(=O)C23)OCO4)cc(OC)c1O` (stereo unspecified), the viability, T/C by setting is: (compound 0.0316 µM) 100% and 98.3% and 90.5%; (compound 0.1 µM) 97.9% and 98.6% and 88.2%; (compound 0.316 µM) 87.8% and 77.3% and 74.2%; (compound 1 µM) 43.1% and 30.2% and 27.2%; (compound 3.16 µM) 15.4% and 11.7% and 11.3%; (compound 10 µM) 9.14% and 7.67% and 7.65%. The IC50 (curve of compound) was 843 nM and 618 nM and 573 nM.
As to `CCc1c2c(nc3ccc(O)cc13)-c1cc3c(c(=O)n1C2)COC(=O)[C@]3(O)CC`, the viability, T/C reads like this: (compound 0.000999 µM) 25.5% and 14.5% and 17.8%; (compound 0.00316 µM) 8.48% and 8.19% and 8.06%; (compound 0.00999 µM) 5.42% and 2.67% and 4.25%; (compound 0.0316 µM) 3.41% and 2.61% and 2.84%; (compound 0.0999 µM) 2% and 2.11% and 1.97%; (compound 0.316 µM) 1.84% and 1.42% and 1.47%. The half-maximal inhibitory concentration (IC50) (curve of compound) is below 0.999 nM.
For `Cc1[nH]c2ccc(F)cc2c1-c1nc2c3cccnc3c3ncccc3c2[nH]1`, the viability, T/C runs as follows: (compound 0.0316 µM) 99.9% [middle of 12 runs]; (compound 0.1 µM) 101% [middle of 12 runs]; (compound 0.316 µM) 97.9% [middle of 12 runs]; (compound 1 µM) 76.9% [middle of 12 runs]; (compound 10 µM) 3.15% [middle of 12 runs]. For the same molecule, the IC50 was 1.75 µM [middle of 8 runs] (compound alone, run of 04/16/2024) and 1.54 µM [middle of 4 runs] (compound alone, run of 04/22/2024).
With `CCCS(=O)(=O)Nc1ccc(F)c(C(=O)c2c[nH]c3ncc(-c4ccc(Cl)cc4)cc23)c1F`, the viability, T/C (compound 0.0316 µM) was 115% (2×) and 92.5%; the viability, T/C (compound 0.1 µM) is 103% and 94.5% and 95.3%; the viability, T/C (compound 0.316 µM) was 68.9% and 106% and 108%; the viability, T/C (compound 1 µM) is 8.17% and 109% and 104%.
As for `O=c1[nH]cc(F)c(=O)[nH]1` + Cc1[nH]c2ccc(F)cc2c1-c1nc2c3cccnc3c3ncccc3c2[nH]1, the concentration for half-maximal inhibition (IC50) runs as follows: under setting [1], above 10000 nM; under setting [2], above 10000 nM; under setting [3], above 10000 nM; under setting [4], above 10000 nM; under setting [5], below 31.6 nM; under setting [6], below 31.6 nM. Besides, the viability, T/C runs as follows: under setting [7], 98.3%; under setting [8], 98.3%; under setting [9], 104%; under setting [10], 122%; under setting [11], 69.5%; under setting [12], 59.3%. Further, the viability, T/C runs as follows: under setting [13], 102%; under setting [14], 106%; under setting [15], 111%; under setting [16], 104%; under setting [17], 70.1%; under setting [18], 56.2%. Moreover, the viability, T/C by setting is: under setting [19], 96.9%; under setting [20], 90.1%; under setting [21], 81.7%; under setting [22], 104%; under setting [23], 70.5%; under setting [24], 61.1%. For the same molecule, the viability, T/C runs as follows: under setting [25], 80.4%; under setting [26], 82.3%; under setting [27], 73.7%; under setting [28], 66.4%; under setting [29], 53.9%; under setting [30], 51.6%. Moreover, the viability, T/C is 22% under setting [31]; 18.2% under setting [32]; 14.3% under setting [33]; 16.8% under setting [34]; 11.4% under setting [35]; 9.54% under setting [36]. The viability, T/C runs as follows: under setting [37], 1.17%; under setting [38], 2.62%; under setting [39], 1.62%; under setting [40], 1.6%; under setting [41], 1.85%; under setting [42], 1.45%.
